# Results as given in patent US20220267310A1, “QUINAZOLINE AND CINNOLINE DERIVATIVES AS DNA-PK INHIBITOR” (MEDSHINE DISCOVERY INC., priority 2019, published 2022).
# pIC50: −log10 of the molar value.
# Columns and labels:
# DNA-PK (h) = target: T1, DNA-PK (h) (Homo sapiens, UniProt P78527); test: DNA-PK kinase inhibitory activity (HTRF, Eurofins); type: biochemical; conditions: ATP: 10 μM
# T1 construct: Eurofins Pharma Discovery Service (contract assay)
# Method: This experiment was tested at Eurofins Pharma Discovery Service, Reaction Biology Corp. (RBC)
# […] DNA-PK: Mg/ATP; GST-cMyc-p53; EDTA; Ser15 antibody; ATP: 10 μM; biotinylated phosphatidylinositol-3,4,5-triphosphate; GST label GRP1 PH domain; streptavidin and phycocyanin; europium-labelled monoclonal antibody against GST.
# DNA-PK (h) was incubated in a determination buffer containing 50 nM GST-cMyc-p53 and Mg/ATP (density as required). The reaction was initiated by adding a mixture of Mg/ATP. After incubating at room temperature for 30 min, a termination solution containing EDTA was added to terminate the reaction. Finally, a detection buffer (containing labeled anti-GST monoclonal antibody and europium-labeled anti-phosphate Ser15 antibody against phosphorylated p53) was added. Then, the board was read in time-resolved fluorescence mode, and a Homogeneous Time Resolved Fluorescence (HTRF) signal was measured according to the formula HTRF=10000×(Em665 nm/Em620 nm).
# [1] = test system: human head and neck cancer FaDu cell subcutaneous xenograft tumor; test: FaDu subcutaneous xenograft, mono and combination with radiotherapy; type: in vivo; conditions: for Tumor volume (mm^3), 3 days after administration: day 3; for Tumor volume (mm^3), 7 days after administration: day 7; for Tumor volume (mm^3), 10 days after administration: day 10; for Tumor volume (mm^3), 14 days after administration: day 14; for Tumor volume (mm^3), 17 days after administration: day 17; for Tumor volume (mm^3), 23 days after administration: day 23; for RTV (21th day) / T/C (%) (21th day) / TGI (%) (21th day) / Tumor volume (mm^3) (0th day) / Tumor volume (mm^3) (21th day): 50 mg/kg, PO
# Method: Experiment purpose: The antitumor activity of the tested compound was evaluated in a nude mouse model of human head and neck cancer FaDu cell subcutaneous xenograft tumor
# Experimental animals: Female BALB/c nude mice, 6-8 weeks old, weighing 17-23 grams; supplier: B&K Universal Group Limited
# Human head and neck cancer FaDu cell (ATCC, Manassas. Virginiaite, item number: HTB-43) was cultured in vitro in a culture condition of EMEM medium with 10% fetal bovine serum, 100 U/mL penicillin and 100 μg/mL streptomycin, incubated at 37° C. and 5% CO2. Conventional digestive treatment passage was carried out using pancreatic enzyme—EDTA twice a week.
# Each mouse was subcutaneously inoculated with 0.1 mL ([…]) FaDu cells at the right dorsal position, and when the average tumor volume reaches about 106 mm^3, randomization was used for initiating drug administration.
# The tested compound was prepared as a 5 mg/mL clarified solution with 10% DMSO+50% polyethylene glycol 400+40% water as the solvent. Preparation was conducted every three days.
# The experimental indicators refers to study whether tumor growth was inhibited, delayed, or cured. Tumor diameter was measured twice a week with a vernier caliper. The calculation formula of the tumor volume was V=0.5a×b^2, and a and b represent the long diameter and short diameter of the tumor, respectively.
# The antitumor efficacy of the compound was evaluated by TGI (%) or relative tumor proliferation rate T/C (%). TGI (%) reflects the tumor growth inhibition rate. The calculation of TGI (%): TGI (%)=[1−(average tumor volume at the end of administration of a certain treatment group−average tumor volume at the beginning of administration of the treatment group)/(average tumor volume at the end of treatment in solvent control group−average tumor volume at the beginning of treatment in solvent control group)]×control group.
# Relative tumor proliferation rate T/C (%): the calculation formula was as follows: T/C %=[…] TRTV/CRTV group (TRTV: treatment group RTV: CRTV: negative control group RTV). According to results of tumor measurement. Relative Tumor Volume (RTV) was calculated by the formula RTV=Vt/V0, where V0 was the average tumor volume measured in group administration (i.e., d0), and Vt was the average tumor volume measured in a certain single measurement. TRTV and CRTV collect data on the same day.
# Statistic analysis includes an average value and a standard error (SEM) of tumor volume at each time point for each group. […] If there was no significant difference in F value, Dunnet (2-sided) method was applied to analysis. All data were analyzed using SPSS 17.0. P<0.05 was considered as having a significant difference.
# [2] = 50 mg/kg + 2 Gy, average ± SEM, n = 8
# [3] = 50 mg/kg alone, average ± SEM, n = 8
# [4] = QD, alone, average ± SEM, n = 8
compound,measurement,setting,value
"COc1ccc([C@@H](O)c2cc(-c3nncc4cc(N5CCOCC5)ccc34)c(F)cc2Cl)nn1 [Embodiment M3814, reference compound]",pIC50,DNA-PK (h),9.00
same,"Tumor volume (mm^3), 3 days after administration",[1]; [2],168 ± 10 mm^3
same,"Tumor volume (mm^3), 7 days after administration",[1]; [2],106 ± 19 mm^3
same,"Tumor volume (mm^3), 10 days after administration",[1]; [2],68 ± 16 mm^3
same,"Tumor volume (mm^3), 14 days after administration",[1]; [2],25 ± 9 mm^3
same,"Tumor volume (mm^3), 17 days after administration",[1]; [2],12 ± 4 mm^3
same,"Tumor volume (mm^3), 23 days after administration",[1]; [2],1 ± 1 mm^3
same,"Tumor volume (mm^3), 28 days after administration","[1]; 50 mg/kg + 2 Gy, day 28, average ± SEM, n = 8",1 ± 1 mm^3
same,"Tumor volume (mm^3), 31 days after administration","[1]; 50 mg/kg + 2 Gy, day 31, average ± SEM, n = 8",0 ± 0 mm^3
same,"Tumor volume (mm^3), 35 days after administration","[1]; 50 mg/kg + 2 Gy, day 35, average ± SEM, n = 8",0 ± 0 mm^3
same,"Tumor volume (mm^3), 42 days after administration","[1]; 50 mg/kg + 2 Gy, day 42, average ± SEM, n = 8",0 ± 0 mm^3
same,"Tumor volume (mm^3), 49 days after administration","[1]; 50 mg/kg + 2 Gy, day 49, average ± SEM, n = 8",0 ± 0 mm^3
same,"Tumor volume (mm^3), 56 days after administration","[1]; 50 mg/kg + 2 Gy, day 56, average ± SEM, n = 8",0 ± 0 mm^3
same,"Tumor volume (mm^3), 63 days after administration","[1]; 50 mg/kg + 2 Gy, day 63, average ± SEM, n = 8",0 ± 0 mm^3
same,"Tumor volume (mm^3), 70 days after administration","[1]; 50 mg/kg + 2 Gy, day 70, average ± SEM, n = 8",0 ± 0 mm^3
same,animal death or euthanasia during the study,"[1]; 50 mg/kg alone, one animal of the group",found dead on day 23 after group administration
same,"Tumor volume (mm^3), 3 days after administration",[1]; [3],167 ± 20 mm^3
same,"Tumor volume (mm^3), 7 days after administration",[1]; [3],322 ± 35 mm^3
same,"Tumor volume (mm^3), 10 days after administration",[1]; [3],502 ± 48 mm^3
same,"Tumor volume (mm^3), 14 days after administration",[1]; [3],752 ± 64 mm^3
same,"Tumor volume (mm^3), 17 days after administration",[1]; [3],997 ± 109 mm^3
same,"Tumor volume (mm^3), 23 days after administration",[1]; [3],1831 ± 254 mm^3
same,RTV (21th day),[1]; QD + radiotherapy 2 Gy,0.03 ± 0.02
same,T/C (%) (21th day),[1]; QD + radiotherapy 2 Gy,0.24%
same,TGI (%) (21th day),[1]; QD + radiotherapy 2 Gy,108.46%
same,Tumor volume (mm^3) (0th day),"[1]; QD + radiotherapy 2 Gy, 5-day radiotherapy, 2-day withdrawal, average ± SEM, n = 8",106 ± 5 mm^3
same,Tumor volume (mm^3) (21th day),"[1]; QD + radiotherapy 2 Gy, average ± SEM, n = 8",3 ± 2 mm^3
same,RTV (21th day),"[1]; QD, alone",12.35 ± 1.10
same,T/C (%) (21th day),"[1]; QD, alone",99.60%
same,TGI (%) (21th day),"[1]; QD, alone",−0.43%
same,Tumor volume (mm^3) (0th day),[1]; [4],106 ± 5 mm^3
same,Tumor volume (mm^3) (21th day),[1]; [4],1320 ± 174 mm^3
